PMC6264139, “Schiff Bases of Indoline-2,3-dione: Potential Novel Inhibitors of Mycobacterium Tuberculosis (Mtb) DNA Gyrase ^†” (Molecules, 2011)

| Structure (SMILES) | melting point |
| --- | --- |
| O=C1Nc2ccccc2/C1=N/NC(=O)c1cccnc1 [Compound 14, (Z)-N'-(2-Oxoindolin-3-ylidene)nicotinohydrazide] | 254 to 256 °C |
| Cc1cccc(Nc2ccccc2C(=O)N/N=C2\C(=O)N(Cc3ccccc3)c3ccccc32)c1C [Compound 23, (Z)-N'-(1-Benzyl-2-oxoindolin-3-ylidene)-2-(2,3-dimethylphenylamino)benzohydrazide] | 286 to 288 °C |
| Cc1ccc2c(c1)/C(=N/NC(=O)c1ccncc1)C(=O)N2Cc1ccccc1 [Compound 13, (Z)-N'-(1-Benzyl-5-methyl-2-oxoindolin-3-ylidene)isonicotinohydrazide] | 159 to 162 °C |
| Cc1ccc2c(c1)/C(=N/NC(=O)c1ccccc1Nc1c(Cl)ccc(C)c1Cl)C(=O)N2 [Compound 24, (Z)-2-(2,6-Dichloro-3-methylphenylamino)-N'-(5-methyl-2-oxoindolin-3-ylidene)-benzohydrazide] | 283 to 287 °C |
| O=C1Nc2ccc([N+](=O)[O-])cc2/C1=N/NC(=O)c1cc2ccccc2o1 [Compound 19, (Z)-N'-(5-Nitro-2-oxoindolin-3-ylidene)benzofuran-2-carbohydrazide] | 367 to 369 °C |
| O=C1Nc2ccc(OC(F)(F)F)cc2/C1=N/NC(=O)c1ccncc1 [Compound 7, (Z)-N'-(2-Oxo-5-(trifluoromethoxy)indolin-3-ylidene)isonicotinohydrazide] | 262 to 265 °C |
| O=C1Nc2ccc(F)cc2/C1=N/NC(=O)c1cc2cc([N+](=O)[O-])ccc2o1 [Compound 21, (Z)-N'-(5-Fluoro-2-oxoindolin-3-ylidene)-5-nitrobenzofuran-2-carbhydrazide] | 357 to 359 °C |
| O=C1Nc2ccc(F)cc2/C1=N/NC(=O)c1ccncc1 [Compound 5, (Z)-N'-(5-Fluoro-2-oxoindolin-3-ylidene)isonicotinohydrazide] | 346 to 348 °C |
| O=C1Nc2ccc(Cl)cc2/C1=N/NC(=O)c1ccncc1 [Compound 4, (Z)-N'-(5-Chloro-2-oxoindolin-3-ylidene)isonicotinohydrazide] | 345 to 348 °C |
| O=C1Nc2ccc([N+](=O)[O-])cc2/C1=N/NC(=O)c1ccncc1 [Compound 8, (Z)-N'-(5-Nitro-2-oxoindolin-3-ylidene)isonicotinohydrazide] | 350 to 353 °C |
| O=C1Nc2ccc(F)cc2/C1=N/NC(=O)c1ccco1 [Compound 15, (Z)-N'-(5-Fluoro-2-oxoindolin-3-ylidene)furan-2-carbhydrazide] | 310 to 312 °C |
| O=C1Nc2ccc(Cl)cc2/C1=N/NC(=O)c1cc2ccccc2o1 [Compound 17, (Z)-N'-(5-Chloro-2-oxoindolin-3-ylidene)benzofuran-2-carbohydrazide] | 335 to 338 °C |
| CCn1cc(C(=O)N/N=C2\C(=O)Nc3ccc(F)cc32)c(=O)c2ccc(C)nc21 [Compound 26, (Z)-1-Ethyl-N'-(5-fluoro-2-oxoindolin-3-ylidene)-7-methyl-4-oxo-1,4-dihydro-1,8-naphthyridine-3-carbohydrazide] | > 360 °C |
| O=C(N/N=C1\C(=O)N(c2ccccc2)c2ccccc21)c1ccncc1 [Compound 9, (Z)-N'-(2-Oxo-1-phenylindolin-3-ylidene)isonicotinohydrazide] | 201 to 205 °C |
| O=C(N/N=C1\C(=O)N(Cc2ccccc2)c2ccc(Cl)cc21)c1ccncc1 [Compound 11, (Z)-N'-(1-Benzyl-5-chloro-2-oxoindolin-3-ylidene)isonicotinohydrazide] | 167 to 171 °C |
| Cc1ccc2c(c1)/C(=N/NC(=O)c1cc3ccccc3o1)C(=O)N2 [Compound 18, (Z)-N'-(5-Methyl-2-oxoindolin-3-ylidene)benzofuran-2-carbohydrazide] | 331 to 336 °C |
| Cc1ccc2c(c1)/C(=N/NC(=O)c1ccncc1)C(=O)N2 [Compound 6, (Z)-N'-(5-Methyl-2-oxoindolin-3-ylidene)isonicotinohydrazide] | 319 to 322 °C |
| O=C(N/N=C1\C(=O)N(Cc2ccccc2)c2ccc(F)cc21)c1ccncc1 [Compound 12, (Z)-N'-(1-Benzyl-5-fluoro-2-oxoindolin-3-ylidene)isonicotinohydrazide] | 188 to 192 °C |
| O=C1Nc2ccc(OC(F)(F)F)cc2/C1=N/NC(=O)c1ccccc1Nc1cccc(C(F)(F)F)c1 [Compound 25, (Z)-N'-(2-Oxo-5-(trifluoromethoxy)indolin-3-ylidene)-2-(3-(trifluoromethyl)phenylamino)-benzo-hydrazide] | 226 °C |
| O=C1Nc2ccccc2/C1=N/NC(=O)c1ccc([N+](=O)[O-])o1 [Compound 16, (Z)-5-Nitro-N'-(2-Oxoindolin-3-ylidene)furan-2-carbohydrazide] | 309 to 311 °C |
| O=C(N/N=C1\C(=O)N(c2ccccc2)c2ccccc21)c1cc2ccccc2o1 [Compound 20, (Z)-N'-(2-Oxo-1-phenylindolin-3-ylidene)benzofuran-2-carbohydrazide] | 235 to 238 °C |
| O=C1/C(=N\NC(=O)C23CC4CC(CC(C4)C2)C3)c2ccccc2N1c1ccccc1 [Compound 22, (Z)-N'-(2-oxo-1-phenylindolin-3-ylidene)adamantane-1-carbohydrazide] | 201 to 203 °C |
